Test results published in publication PMC7932537, “Quantitative profiling of protease specificity” (PLoS Computational Biology, 2021).

Assays:
MMP-9 = experiment: Substrate phage display with NGS: relative probability (RP) of P3-P1' tetramer clusters; type: biochemical, human; details: for MMP9 relative probability (RP): MMP9 tetramers from unique substrates, unrounded values
MMP-2 = experiment: as above; type: biochemical, human; details: for avg_RP: MMP2 - no binning; for relative probability (RP) of matching tetramer: P3-P1' tetramer matching the MS detected MMP2 cleavage sequence, RP_above_4.5; for corresponding MMP2 relative probability (RP): MMP9 tetramers from unique substrates, RP of same tetramer for MMP2
[1] = MMP9, RP of matching P3-P1' tetramer, common set of MMP2-9 selectome
[2] = MMP9, RP of the P3-P1' tetramer matching the MS detected cleavage, RP above 4.7, substrate phage display with NGS
[3] = RP of matching tetramer, common MMP2-9 selectome, RP above KL threshold
[4] = average relative probability (RP) of the P3-P1' tetramer, redundant tetramers have been averaged out
[5] = MMP2, RP of matching P3-P1' tetramer, common set of MMP2-9 selectome, RP above KL threshold
[6] = RP of matching tetramer, common MMP2-9 selectome
[7] = RP of the P3-P1' tetramer, MMP9 substrate phage display/NGS, tetramers of physiologic MEROPS substrates common to MMP2 and MMP9
[8] = RP of the P3-P1' tetramer, MMP2 substrate phage display/NGS, tetramers of physiologic MEROPS substrates common to MMP2 and MMP9
[9] = MMP9, RP of the P3-P1' tetramer contained in the hexamer substrate (substrate phage display, NGS)
[10] = RP of the P3-P1' tetramer cluster contained in the hexamer, 200 nM MMP-2, 2 h, 37°C, two rounds of selection
[11] = normalized RP of matching tetramer, unique part of MMP2 selectome
[12] = RP according to MMP9, P3-P1' tetramer of unique physiologic MMP9 substrates from MEROPS
[13] = RP according to MMP2, P3-P1' tetramer of unique physiologic MMP2 substrates from MEROPS

Substance: IANL
- relative probability (RP) (acc.to MMP9) (MMP-9; [1]): 21.07
- relative probability (RP) (MMP-9; [2]): 21.07
- relative probability (RP) (acc.to MMP9) (MMP-9; [3]): 21.07
- avg_RP (MMP-2; [4]): 33.8805
- relative probability (RP) (acc.to MMP2) (MMP-2; [5]): 33.88
- relative probability (RP) of matching tetramer (MMP-2): 33.88
- relative probability (RP) (acc.to MMP2) (MMP-2; [6]): 33.88

Substance: AMPM
- relative probability (RP) (acc.to MMP9) (MMP-9; [1]): 26.95
- relative probability (RP) (MMP-9; [2]): 26.95
- relative probability (RP) (acc.to MMP9) (MMP-9; [3]): 26.95
- relative probability (RP) (acc.to MMP2) (MMP-2; [5]): 8.51
- relative probability (RP) of matching tetramer (MMP-2): 8.51
- relative probability (RP) (acc.to MMP2) (MMP-2; [6]): 8.51

Substance: PGGV
- MMP9 relative probability (RP) (MMP-9): 2.434
- corresponding MMP2 relative probability (RP) (MMP-2): 10.6032

Substance: ARGI
- relative probability (RP) (MMP-9; [2]): 31.4
- relative probability (RP) (acc.to MMP9) (MMP-9; [3]): 31.4
- avg_RP (MMP-2; [4]): 21.2616
- relative probability (RP) (acc.to MMP2) (MMP-2; [6]): 21.26

Substance: VQAM
- relative probability (RP) (MMP-9; [2]): 21.63
- relative probability (RP) (acc.to MMP9) (MMP-9; [3]): 21.63
- relative probability (RP) (acc.to MMP2) (MMP-2; [6]): 21.36

Substance: APGF
- relative probability (RP) (acc.to MMP9) (MMP-9; [7]): 0.56
- relative probability (RP) (acc.to MMP2) (MMP-2; [8]): 0.64

Substance: WPSPFR
- relative probability (RP) (MMP-9; [9]): 37.3217
- relative probability (RP) (MMP-2; [10]): 30.9274

Substance: ALYL
- MMP9 relative probability (RP) (MMP-9): 1.807
- corresponding MMP2 relative probability (RP) (MMP-2): 5.662

Substance: LSWL
- relative probability (RP) (acc.to MMP9) (MMP-9; [1]): 20.21
- relative probability (RP) (MMP-9; [2]): 20.21
- relative probability (RP) (acc.to MMP9) (MMP-9; [3]): 20.21
- relative probability (RP) (acc.to MMP2) (MMP-2; [5]): 25.56
- relative probability (RP) of matching tetramer (MMP-2): 25.56
- relative probability (RP) (acc.to MMP2) (MMP-2; [6]): 25.56

Substance: PTGV
- relative probability (RP) (acc.to MMP9) (MMP-9; [7]): 11.14
- relative probability (RP) (acc.to MMP2) (MMP-2; [8]): 13.32

Substance: PSKL
- relative probability (RP) (acc.to MMP9) (MMP-9; [1]): 38.96
- relative probability (RP) (MMP-9; [2]): 38.96
- relative probability (RP) (acc.to MMP9) (MMP-9; [3]): 38.96
- avg_RP (MMP-2; [4]): 32.2205
- relative probability (RP) (acc.to MMP2) (MMP-2; [5]): 32.22
- relative probability (RP) of matching tetramer (MMP-2): 32.22
- relative probability (RP) (acc.to MMP2) (MMP-2; [6]): 32.22

Substance: PHGYKG
- relative probability (RP) (MMP-9; [9]): 44.1642
- relative probability (RP) (MMP-2; [10]): 24.9359

Substance: EPKPLL
- relative probability (RP) (MMP-9; [9]): 48.2599
- relative probability (RP) (MMP-2; [10]): 33.5622

Substance: GSSY
- relative probability (RP) (acc.to MMP9) (MMP-9; [7]): 0.37
- relative probability (RP) (acc.to MMP2) (MMP-2; [8]): 0.73

Substance: PSGD
- relative probability (RP) (acc.to MMP9) (MMP-9; [7]): 0.48
- relative probability (RP) (acc.to MMP2) (MMP-2; [8]): 0.16

Substance: PQGLAG
- relative probability (RP) (MMP-9; [9]): 47.8621
- relative probability (RP) (MMP-2; [10]): 33.5241

Substance: GPEGMK
- relative probability (RP) (MMP-9; [9]): 31.8598
- relative probability (RP) (MMP-2; [10]): 19.9209

Substance: MNML
- relative probability (RP) (acc.to MMP9) (MMP-9; RP of matching tetramer, unique part of MMP2 selectome): 0.4
- normalized RP - MMP9 (MMP-9; [11]): 0.007637
- relative probability (RP) of matching tetramer (MMP-2): 8.39
- relative probability (RP) (acc.to MMP2) (MMP-2; RP of matching tetramer, unique part of MMP2 selectome, RP above KL threshold): 8.39
- normalized RP - MMP2 (MMP-2; [11]): 0.2297

Substance: FKNI
- relative probability (RP) (acc.to MMP9) (MMP-9; [7]): 0.09
- relative probability (RP) (acc.to MMP2) (MMP-2; [8]): 0.14

Substance: QRGI
- corresponding MMP9 relative probability (RP) (MMP-9; MMP2 tetramers from unique substrates, RP of same tetramer for MMP9): 0.7406
- Relative probability (RP) rank (MMP-9; [12]): 19198
- relative probability (RP) (MMP-9; [12]): 0.74
- relative probability (RP) (acc.to MMP9) (MMP-9; [7]): 0.74
- avg_RP (MMP-2; average relative probability of the tetramer, redundant tetramers averaged out): 7.4836
- MMP2 relative probability (RP) (MMP-2; MMP2 tetramers from unique substrates, unrounded values): 7.484
- Relative probability (RP) rank (MMP-2; [13]): 6090
- relative probability (RP) (MMP-2; [13]): 7.48
- relative probability (RP) (acc.to MMP2) (MMP-2; [8]): 7.48

Substance: PRHR
- relative probability (RP) (acc.to MMP9) (MMP-9; [7]): 0.35
- relative probability (RP) (acc.to MMP2) (MMP-2; [8]): 0.04

Substance: PSGK
- relative probability (RP) (acc.to MMP9) (MMP-9; [7]): 1.08
- relative probability (RP) (acc.to MMP2) (MMP-2; [8]): 2.08

Substance: GPRGLK
- relative probability (RP) (MMP-9; [9]): 47.3825
- relative probability (RP) (MMP-2; [10]): 35.2511

Substance: GPKGFR
- relative probability (RP) (MMP-9; [9]): 42.0715
- relative probability (RP) (MMP-2; [10]): 30.2308

Substance: PRGVKG
- relative probability (RP) (MMP-9; [9]): 42.1832
- relative probability (RP) (MMP-2; [10]): 29.4971

Substance: SAAQPL
- relative probability (RP) (MMP-9; [9]): 28.189
- relative probability (RP) (MMP-2; [10]): 14.4283

Substance: KPVNMT
- relative probability (RP) (MMP-9; [9]): 44.4072
- relative probability (RP) (MMP-2; [10]): 30.0312

Substance: PEGLQG
- relative probability (RP) (MMP-9; [9]): 39.4116
- relative probability (RP) (MMP-2; [10]): 29.5031

Substance: SFGL
- MMP9 relative probability (RP) (MMP-9): 0.1902
- relative probability (RP) (acc.to MMP9) (MMP-9; [7]): 10.79
- corresponding MMP2 relative probability (RP) (MMP-2): 10.7897
- relative probability (RP) (acc.to MMP2) (MMP-2; [8]): 0.19

Substance: PKGYQG
- relative probability (RP) (MMP-9; [9]): 46.8538
- relative probability (RP) (MMP-2; [10]): 30.7046

Substance: PAGVKA
- relative probability (RP) (MMP-9; [9]): 31.0803
- relative probability (RP) (MMP-2; [10]): 28.6381
